The values below come from patent publication US4939124A, “Treatment and diagnosis of dementia” (Laboratorios Serono S.A., priority 1988, dated 1990).

Test [1] relates to Male Wistar rats. As to the kind of experiment: Locomotor activity in open field paradigm (OUCEM-86), i.c.v. injection. It counts as in vivo. The settings on record: for ED50 of change in LA / Emax of change in LA (given as a dose): i.c.v., dose range 0.1 to 10 mcg. An excerpt:
(§1) To clarify whether SS and GRF display at the central level the same antagonistic effect that they have at the pituitary level, the effects of these neuropeptides on several behavioral parameters have been studied using the OUCEM-86^TM (Osaka University Computerized Electronic Maze). The system is integrated by the following components: a Programmable Electronic Platform (PEP) (620×620 mm) equipped with 48 photo beam sensors (OPX-T30); a Programming Panel (PP) (Model BECM-0064) for paradigm stimulation; a Shock Generator Scrambler (SGS) (Model BSG-1065) to apply continuous or discontinuous electric current to the PEP; a Control Station (CS) (BEC 16-Bio Computer Control Station BCS-1105; Bio Medica, Ltd., Osaka) which processes inputs/outputs as an interface device to automatically computerize behavioral parameters; and a Computer System (NEC PC-9801 VM2) with 1 megabyte Random Access Memory (RAM) for data processing and experimental setting.
(§2) Male Wistar rats (175-200 g) (N =5-8 rats/group) received intracerebroventricular (i.c.v.) injections of GRF1-44 and SS-14 over a range of 0.1 to 10 mcg. Then the rats were studied in the OUCEM under two different paradigms (e.g., open field and maze paradigms).
The animals were placed in the PEP for 30-minute periods and locomotor activity (LA) was automatically recorded in an open field paradigm. Total LA is represented as total inputs (I/O) including movements in four-footed position (4F) and in two-footed position (2F), grooming, rearing and jumping activity, while linear (horizontal) movements (4F) are represented as pulses per minute (pm) or cm^2 /min

Test [2] concerns Male Wistar rats. As to the kind of experiment: Locomotor activity and learning in maze paradigm (escape from 1.5 mA shock area), i.c.v. injection. The format is in vivo. How it is done:
The animals had to learn to escape from the shock area in order to avoid a continuous 1.5 mA electric shock. Experimental time --30 minutes.
The rats were treated intracerebroventricularly with SS-14 (1 mcg) and GRF1-44 (1 mcg) and their behavior was automatically recorded by computer using the maze paradigm shown in FIG. 1. p/t denotes pulses per time unit (minute). Locomotor activity was quantified in pulses per minute or cm^2 /min. Total inputs (I/O) in neutral position (white bars) and shock position (black bars) denote how many times the animals enter neutral and shock areas. The N/S ratio results from dividing I/O in neutral position by I/O in shock position and is interpreted as an index of learning in the 30-minute experimental period. The positional time (seconds) represents how long the animals stay in neutral (white bars) or shock (black bars) areas. N-sp and S-sp (in seconds) indicate the time-latency per movement or input in neutral (white bars) and shock (black bars) areas, respectively.
as §1, §2
The amount of inputs (I/O) induced by SS was 103.5±29.5 (control =216.25±55.19, t=8.49, p<0.005) in the neutral area (NA) and 77.14±13.5 I/O in the shock area (SA) (control =298±40, t=1.26, n.s.). GRF generated 459.35±32.5 I/O in NA (t=18.13, p<0.005) and 340.5±63.5 I/O in SA (t=9.07, p<0.005) (FIGS. 1C,3). The NA/SA (N/S) ratios for control, SS- and GRF-treated rats were 0.72, 1.33, and 1.35, respectively (FIG. 2).

For test [3], the system named is female in-patients with primary degenerative dementia (Alzheimer like). The test can be described thus: 8-day GRF (1-29) NH2 therapy, MMS Folstein test and Crichton's scale. It counts as in vivo, human. The settings on record: MMS-Folstein test and Crichton's scale test. Here is the method: Twenty female in-patients with primary degenerative dementia (Alzheimer like) aged 67-84 years were divided in two therapy-groups with GRF (1-29) NH2. All patients were treated with this product for 8 days with either of the following schedules: (I) 250 mcg s.c. twice daily (II) 50 mcg i.v. twice daily Therapy was started after a 15-day wash-out period for psychotropic-drugs. Evolution of patients was assessed using the MMS Folstein test and Chrichton's scale test at 12 hours, 24 hours and 7 days after starting with GRF. The statistical evaluation was made using Friedman test with a risk level p<0,01 (highly significant differences).

No end group written: not given here.

With `C[C@H](N)C(=O)NCC(=O)N[C@H]1CSSC[C@@H](C(=O)O)NC(=O)[C@H](CO)NC(=O)[C@H]([C@@H](C)O)NC(=O)[C@H](Cc2ccccc2)NC(=O)[C@H]([C@@H](C)O)NC(=O)[C@H](CCCCN)NC(=O)[C@H](Cc2c[nH]c3ccccc23)NC(=O)[C@H](Cc2ccccc2)NC(=O)[C@H](Cc2ccccc2)NC(=O)[C@H](CC(N)=O)NC(=O)[C@H](CCCCN)NC1=O` [SS, somatostatin], the “locomotor activity (LA), open field” value in the test with Male Wistar rats [1] (1 mcg i.c.v. (SS-14 / GRF1-44), 30-minute period, control 31.16±6.90 pm) was 20.88±2.82 pm. In the test on Male Wistar rats [1], the “ED50 of change in LA” value was 1830 pmol and the “Emax of change in LA (given as a dose)” value is 6.10 nmol. The “locomotor activity (LA), maze paradigm” value with Male Wistar rats [2] (1 mcg i.c.v., 30 minutes, control 17.12±5.42 pm) is 6.01±1.45 pm. Also, the “NA/SA (N/S) ratio (index of learning)” value in the test with Male Wistar rats [2] (1 mcg i.c.v., control 0.72) was found to be 1.33. Moreover, the “amount of inputs (I/O) in the neutral area (NA)” value with Male Wistar rats [2] (1 mcg i.c.v., control 216.25±55.19) worked out at 103.5±29.5 I/O. Moreover, the “amount of inputs (I/O) in the shock area (SA)” value with Male Wistar rats [2] (1 mcg i.c.v., control 298±40) is 77.14±13.5 I/O. Besides, the “learning abilities (N/S ratio as index)” value in the test with Male Wistar rats [2] (doses of approximately 6.10×10^-10 mol (SS) and 1.98×10^-10 mol (GRF), i.c.v.) is on record as “improve learning abilities”. Also, the “comparison of SS and GRF in improving learning” value in the test with Male Wistar rats [2] (maze paradigm, i.c.v.) is “more effective than GRF in improving learning”.

With “GRF1-29: 1-29 segment of growth hormone releasing factor”, in the test on Male Wistar rats [1], the “ED50 of change in LA” value stood at 297 pmol and the “Emax of change in LA (given as a dose)” value amounted to 5.95 nmol.

As to “GRF1-44: 1-44 segment of growth hormone releasing factor, injected i.c.v. in rats; called GRF in Examples 1-2”, in the test on Male Wistar rats [1], the “ED50 of change in LA” value was determined as 99.1 pmol and the “Emax of change in LA (given as a dose)” value turned out to be 1.98 nmol.

With “GRF (1-29) NH2: GRF product given s.c. or i.v. to dementia patients; called GRF in Example 3 (YADAIFTNSYRKVLGQLSARKLLQDIMSR-NH2; UniProt P01286 32-60, looked up, fragment)”, the “overall effect confirmed by re-evaluation after end of administration” value in test [3] was “significant effect”.
